Results published in ChEMBL document CHEMBL1201862, “PubChem BioAssay data set” (2004).
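Protocol summary: plate cells (96-well), add compound at 5 concentrations, incubate 48 h, interpolate endpoints linearly. GI50: concentration for 50% inhibition of growth.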 The source made the active and inactive calls. No stated cut-off is given here; in the data, active = GI50 up to about 1.1 µM and inactive = higher.

What was measured:
Assay in all cases: NCI-60 cell line screen, 48 h
OVCAR-8 = test system: OVCAR-8
NCI-H522 = test system: NCI-H522
NCI-H460 = test system: NCI-H460
CCRF-CEM = test system: CCRF-CEM
MDA-MB-435 = test system: MDA-MB-435
OVCAR-4 = test system: OVCAR-4
MOLT-4 = test system: MOLT-4
BT-549 = test system: BT-549
Malme-3M = test system: Malme-3M
786-0 = test system: 786-0
COLO 205 = test system: COLO 205
TK-10 = test system: TK-10
U-251 = test system: U-251
SK-MEL-2 = test system: SK-MEL-2
A549 = test system: A549
Hs-578T = test system: Hs-578T
NCI-H23 = test system: NCI-H23
DU-145 = test system: DU-145
UO-31 = test system: UO-31
OVCAR-3 = test system: OVCAR-3

Measured: GI50

N#Cc1c(-c2ccc([N+](=O)[O-])cc2)c(C#N)c(=O)n(NS(=O)(=O)c2ccccc2)c1S
inactive: OVCAR-8 33.2 µM | NCI-H522 21.2 µM | NCI-H460 48.8 µM | CCRF-CEM 16 µM | MDA-MB-435 38.5 µM | OVCAR-4 > 100 µM | MOLT-4 17.5 µM | BT-549 15.5 µM | Malme-3M 48.1 µM | 786-0 32.1 µM | COLO 205 46.5 µM | TK-10 > 100 µM | U-251 41.3 µM | SK-MEL-2 19.2 µM | A549 39.9 µM | Hs-578T 20.8 µM

O=c1[nH]c(=O)c2c3n(cc2[nH]1)CCCCC3
inactive: OVCAR-8 > 100 µM | NCI-H522 > 100 µM | NCI-H460 > 100 µM | NCI-H23 > 100 µM | DU-145 > 100 µM | UO-31 > 100 µM | CCRF-CEM > 100 µM | MDA-MB-435 > 100 µM | OVCAR-4 > 100 µM | MOLT-4 > 100 µM | Malme-3M > 100 µM | 786-0 > 100 µM | COLO 205 > 100 µM | TK-10 17.5 µM | U-251 > 100 µM | A549 > 100 µM | Hs-578T > 100 µM

COc1cc(S(=O)(=O)Nc2ccc(-c3csc(N4C(=O)CSC4c4ccccc4O)n3)cc2)ccc1Cl (centres undefined)
inactive: OVCAR-8 55.1 µM | NCI-H522 24.3 µM | NCI-H460 21.4 µM | NCI-H23 31.5 µM | DU-145 35.4 µM | UO-31 51.3 µM | OVCAR-3 84.7 µM | CCRF-CEM 23.3 µM | MDA-MB-435 40.4 µM | OVCAR-4 52.2 µM | MOLT-4 88.3 µM | BT-549 31 µM | Malme-3M 42.5 µM | 786-0 69.2 µM | COLO 205 24.5 µM | SK-MEL-2 44.6 µM | A549 61.8 µM

CC(C)(C)C1=NN=C2c3ccccc3C(=O)C21 (centres undefined)
inactive: OVCAR-8 43.6 µM | NCI-H522 35.4 µM | NCI-H460 43.9 µM | NCI-H23 49 µM | DU-145 31.3 µM | UO-31 4.78 µM | OVCAR-3 37.6 µM | CCRF-CEM 63.2 µM | MDA-MB-435 41.6 µM | OVCAR-4 38.8 µM | MOLT-4 22.4 µM | Malme-3M 36.2 µM | 786-0 99.5 µM | COLO 205 37.8 µM | TK-10 53 µM | U-251 46.9 µM | SK-MEL-2 39.8 µM | A549 45.1 µM | Hs-578T 20.7 µM
